In US20240352145A1, “EFFICACY OF ANTI-TROP-2-SN-38 ANTIBODY DRUG CONJUGATES FOR THERAPY OF TUMORS RELAPSED/REFRACTORY TO CHECKPOINT INHIBITORS” (Immunomedics, Inc., priority 2016, published 2024):
Where two headings read alike, the source gives them in different places.

What was measured:
TNBC = type: in vivo, human
Procedure: Medical History—The patient is a person who was first diagnosed in October 2007 with a 1.8 cm mass in their right breast. They underwent a right mastectomy with a sentinel node biopsy (no malignancy in nodes). The tumor was determined to be negative for ER, PR and Her-2 (i.e., TNBC). They proceeded with 4 cycles of AC (doxorubicin and cyclophosphamide) therapy, followed by weekly low dose paclitaxel (×12). […] They had local surgery to remove the node and then received XRT (radiation therapy) through March 2009. In June 2010 CT documented recurrent pulmonary and bone involvement. The patient enrolled in a clinical trial using AVASTIN® (bevacizumab), METMAB® (onartuzumab, […]), and TAXOL® (paclitaxel), which they were maintained on until March 2013, having a complete response, but eventual progression of peripheral lung nodule and node in AP (aortopulmonary) window. In September 2014, they started on PD-L1 antibody (MPDL3280A) for 6 cycles, but progressed in January 2015.
2015 at a dose of 10 mg/kg, and has continued to receive this dose without reduction or delay in planned schedule now for 40+ doses.

MDA-MB-468 = experiment: Cytotoxicity (MTS), Example 7, MDA-MB-468; type: cell-based, human; details: MDA-MB-468, 96 h
Procedure: One day prior to adding the ADC, cells were harvested from tissue culture and plated into 96-well plates at 2000 cells per well. […] Plates were incubated at 37° C. for 96 h. […] Growth inhibition was measured as a percent of growth relative to untreated cells using Microsoft Excel and Prism software (non-linear regression to generate sigmoidal dose response curves which yield IC50-values).

[1] = test system: Trop-2+ human gastric carcinoma xenografts (NCI-N87); experiment: Effect of DAR on efficacy, NCI-N87 xenograft; type: in vivo, mouse; details: for median survival time (MST): 2 treatments 7 days apart, 0.5 mg
Source text: Effect of DAR on pharmacokinetics and anti-tumor efficacy in mice.

HCC1806 (Trop-2+) = experiment: dsDNA breaks, phospho-H2AX flow cytometry, HCC1806; type: cell-based, human; details: untreated baseline 168
Procedure: In vitro specificity testing by flow cytometry with rH2AX-stained cells—For drug activity testing, HCC1806 and HCC1395 TNBC cell lines cells were seeded in 6-well plates at 5×10^5 cells/well and held at 37° C. overnight. […] The signal intensity of rH2AX was measured by flow cytometry using a BD FACSCalibur (BD Biosciences, San Jose, CA).
The cells were then washed to remove unbound conjugate, and then incubated overnight at 37° C.

[2] = test system: human gastric carcinoma xenograft, NCI-N87; experiment: NCI-N87 gastric carcinoma xenograft, Example 17; type: in vivo, mouse
Source text: In Vivo Therapeutic Studies—NCr female athymic nude (nu/nu) mice, 4-8 weeks old, were purchased from Taconic Farms (Germantown, NY). NCI-N87 gastric tumor xenografts were established by harvesting cells from tissue culture and making a final cell suspension 1:1 in matrigel (BD Bioscience; San Jose, CA), with each mouse receiving a total of 1×10^7 cells s.c. in the right flank. For BxPC-3. xenografts of 1 g were harvested, and a tumor suspension made in HBSS to a concentration of 40% tumor w/v. This suspension was mixed 1:1 with matrigel for a final tumor suspension of 20% w/v. […] For IHC, tumors were allowed to grow to approximately 0.5 cm^3 before the mice were euthanized and the tumors removed, formalin-fixed and paraffin-embedded. For therapy studies, mice were randomized into treatment groups and therapy begun when tumor volumes were approximately 0.25 cm^3.
Mice were euthanized and deemed to have succumbed to disease once tumors grew to greater than 1.0 cm^3 in size. […] Time to progression (TTP) was determined as time post-therapy initiation when the tumor grew more than 20% in size from its nadir.
Survival studies were analyzed using Kaplan-Meier plots (log-rank analysis), using the Prism GraphPad Software (v4.03) software package (Advanced Graphics Software, Inc., Encinitas, CA).

[3] = test system: metastatic non-small cell lung cancer (NSCLC); experiment: Phase I/II, metastatic NSCLC cohort; type: in vivo, human
Procedure: The best responses by RESIST 1.1 criteria were determined (not shown).

MDA-MB-231 = details: mouse, in vivo
BxPC-3 = experiment: In vitro cytotoxicity, BxPC-3
Source text: (§1) Cell lines, antibodies, and chemotherapeutics—All human cancer cell lines used in this study were purchased from the American Type Culture Collection.

Capan-1 = experiment: In vitro cytotoxicity, Capan-1
Source text: as §1

SK-MES-1 = experiment: In vitro cytotoxicity, SK-MES-1
Source text: as §1

Trop-2 = target: T1, Trop-2 (Homo sapiens, UniProt P09758); experiment: Trop-2 ELISA, human; type: binding; parameters: purchased Sino Biological, Inc. 10428-H09H
T1 sequence (P09758 27-323): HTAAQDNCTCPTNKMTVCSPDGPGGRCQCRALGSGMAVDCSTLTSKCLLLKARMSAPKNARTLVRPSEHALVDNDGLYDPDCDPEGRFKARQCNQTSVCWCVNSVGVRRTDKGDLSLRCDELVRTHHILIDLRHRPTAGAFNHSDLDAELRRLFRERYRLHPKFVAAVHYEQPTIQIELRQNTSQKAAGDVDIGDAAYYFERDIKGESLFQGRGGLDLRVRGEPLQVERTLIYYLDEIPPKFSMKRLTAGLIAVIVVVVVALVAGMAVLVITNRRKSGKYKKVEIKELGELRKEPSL
Procedure: Trop-2 ELISA—Recombinant human Trop-2 with a His-tag (Sino Biological, Inc., Bejing, China; Cat #10428-H09H) and recombinant mouse Trop-2 with a His-Tag (Sino Biological, Inc., Cat #50922-M08H) were plated onto Ni-NTA Hissorb strips (Qiagen GmbH Cat #35023) at 1 μg for 1 h at room temperature. The plate was washed four times with PBS-Tween (0.05%) wash buffer. Serial dilutions of hRS7 were made in 1% BSA-PBS dilution buffer to a test range of 0.1 ng/mL to 10 μg/mL. The plates were then incubated for 2 h at room temperature before being washed four times followed by the addition of a peroxidase conjugated secondary antibody (goat anti-human, Fc fragment specific; Jackson Immunoresearch Cat #109-036-098). After a 45-min incubation, the plate was washed and a substrate solution (o-phenylenediamine dihydrochloride (OPD); Sigma, Cat #P828) added to all the wells. Plates were incubated in the dark for 15 min before the reaction was stopped with 4N sulfuric acid. The plates were read at 450 nm on Biotek ELX808 plate reader. Data were analyzed and graphed using Prism GraphPad Software (v4.03) (Advanced Graphics Software, Inc.; Encinitas, CA).

IMMU-132 was tested, and the “Best Response, shrinkage” value (TNBC; 10 mg/kg) was 54%, the “Best Response” value (TNBC; 10 mg/kg, patient progressed after PD-L1 therapy) was “Partial response, confirmed” and the “decrease in sum of target lesion diameters” value (from here on “decrease in sum”) (TNBC; CT 7 Apr. 2015, first assessment) was 33%. For the same substance, the “decrease in sum” value (TNBC; CT 13 Sep. 2015) was 52%, the “decrease in sum” value (TNBC; CT 15 November) was 54% and the “decrease in sum” value (TNBC; CT 18 May 2015) was 48%. For the same substance, the “decrease in sum” value (TNBC; CT 19 Jul. 2015) was 50%, the “decrease in sum” value (TNBC; CT 25 Feb. 2016) was 46% and the “time to progression” value (TNBC; not reached) was no less than 12.4 months. For the same substance, the IC50 (MDA-MB-468) was 3.9 nM, the “median survival time (MST)” value ([1]; DAR 1.64) was 21 days and the “median survival time (MST)” value ([1]; DAR 3.28 (printed 3.38)) was 25 days. The “tumor growth inhibition (AUC)” value ([1]; DAR 6.89, 0.5 mg twice weekly for two weeks vs DAR 3.28, 1 mg) was “inhibited tumor growth significantly more than tumor-bearing animals treated with the 3.28 DAR conjugate”, the “median survival time (MST)” value ([1]; DAR 6.89) was 39 days and the “Median fluorescence intensity, anti-rH2AX-AF488” value (HCC1806 (Trop-2+)) was 546. For the same substance, the “anti-tumor effects vs non-specific control” value ([2]; 17.5 mg/kg, twice weekly x 4 weeks) was “significant anti-tumor effects”, the “median survival time (MST)” value ([2]; 14 days for saline control) was 66 days and the “mean time to progression (TTP)” value ([2]; mouse, in vivo) was 41.7 ± 4.2 days. The “partial responders, mice” value ([2]; mouse, in vivo) was 6 of 7, the “median PFS” value ([3]; 8 mg/kg) was 3.4 months and the “median PFS” value ([3]; 10 mg/kg) was 3.8 months. The “patients with PR or SD” value ([3]; 21/33) was 64%, the “PR, patients” value ([3]; 29 assessable patients, 8 or 10 mg/kg) was 8 and the “median time to progression” value ([3]; in vivo) was 9/4. The specific therapeutic effects (MDA-MB-231) was “specific therapeutic effects with IMMU-132 were not achieved”, the IC50 (BxPC-3) was 4.03 nM and the IC50 (Capan-1) was 6.99 nM. It also gave an IC50 (SK-MES-1) of 23.1 nM.
hRS7 IgG gave a Kd (Trop-2) of 0.3 nM.
